What was measured:
U87MG cells = test: Cellular assay for IDH1m inhibitors: inhibition of 2-HG production (LC-MS, 48 hours) in U87MG cells; assay type: cell-based; details: Homo sapiens, U-87 MG, inhibition of 2-HG production, U87R132H cells; read-out: U87R132H IC50
In short: (§1)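 Cells were seeded at 5000/well in DMEM with 10% FBS, incubated overnight, then treated with compound (0.2% DMSO final) for 48 h at 37° C. Medium 2-HG was quantified by LC-MS. IC50 is the concentration reducing 2-HG by 50% versus DMSO control, and CellTiter-Glo viability was read at 72 h.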

HT1080 cells = test: Cellular assay for IDH1m inhibitors: inhibition of 2-HG production (LC-MS, 48 hours) in HT1080 cells; assay type: cell-based; details: Homo sapiens, HT-1080; inhibition of 2-HG production, HT1080 cells; read-out: HT1080 IC50
In short: as §1

IDH1 R132H = IDH1 R132H (Homo sapiens, UniProt O75874, R132H); test: Assay for IDH1 R132H inhibitors (NADPH/aKG, resazurin detection); assay type: biochemical; details: enzyme assay of Example 12; read-out: IDH1R132H IC50
IDH1 R132H, sequence (O75874 whole entry R132H): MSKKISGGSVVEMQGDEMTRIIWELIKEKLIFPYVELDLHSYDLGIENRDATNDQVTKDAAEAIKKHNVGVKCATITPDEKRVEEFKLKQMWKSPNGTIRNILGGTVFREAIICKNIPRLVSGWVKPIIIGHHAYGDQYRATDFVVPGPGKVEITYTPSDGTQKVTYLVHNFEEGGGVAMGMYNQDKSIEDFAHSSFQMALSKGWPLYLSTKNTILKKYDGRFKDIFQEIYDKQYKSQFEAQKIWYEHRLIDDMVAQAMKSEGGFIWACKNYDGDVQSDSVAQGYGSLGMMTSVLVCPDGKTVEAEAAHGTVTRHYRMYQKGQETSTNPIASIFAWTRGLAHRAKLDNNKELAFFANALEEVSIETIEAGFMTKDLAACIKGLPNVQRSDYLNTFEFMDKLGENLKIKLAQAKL
In short: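 Read-out is resorufin fluorescence (Ex544/Em590) 5 min after adding a 30 μM resazurin detection mix. Before that, mutant enzyme (0.2 μg/ml in its mix) ran 50 min at room temperature with compound, 8 uM NADPH and 2 mM aKG (mix levels) in Tris pH 7.5 with NaCl, MgCl2, BSA.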

IC50 (U87MG cells)	IC50 (HT1080 cells)	IC50 (IDH1 R132H)	Compound
1000 to 10000 nM	1000 to 10000 nM	< 500 nM	COCCC(=O)N1CCN(c2nc(C3CC3)c(-c3ccc(N)cc3)cc2C#N)C[C@H]1C [Compound 383, (R)-5-(4-aminophenyl)-6-cyclopropyl-2-(4-(3-methoxypropanoyl)-3-methylpiperazin-1-yl)nicotinonitrile]
< 500 nM	< 500 nM	< 500 nM	COCCC(=O)N1CCN(c2nc(C3CC3)c(-c3cccc4cnccc34)c(C)c2C#N)C[C@H]1C [Compound 410, 6-cyclopropyl-5-(isoquinolin-5-yl)-2-((R)-4-(3-methoxypropanoyl)-3-methylpiperazin-1-yl)-4-methylnicotinonitrile]
< 500 nM	< 500 nM	< 500 nM	C=Cc1cc(Nc2cc(C#N)c(N3CCN(C(=O)CCO)[C@H](C4CC4)C3)nc2C2CC2)ccn1 [Compound 676, (R)-6-cyclopropyl-2-(3-cyclopropyl-4-(3-hydroxypropanoyl)piperazin-1-yl)-5-((2-vinylpyridin-4-yl)amino)nicotinonitrile]
< 500 nM	< 500 nM	< 500 nM	C=Cc1cc(-c2cc(C#N)c(N3CCN(C(=O)CCOC)[C@H](C)C3)nc2C2CC2)c2cccnc2n1 [Compound 599, (R)-6-cyclopropyl-2-(4-(3-methoxypropanoyl)-3-methylpiperazin-1-yl)-5-(2-vinyl-1,8-naphthyridin-4-yl)nicotinonitrile]
< 500 nM	< 500 nM	< 500 nM	C=Cc1cc(Oc2cc(C#N)c(N3CCN(C(=O)CCOC)[C@H](C4CC4)C3)nc2C2CC2)ccn1 [Compound 693, (R)-6-cyclopropyl-2-(3-cyclopropyl-4-(3-methoxypropanoyl)piperazin-1-yl)-5-(2-vinylpyridin-4-yloxy)nicotinonitrile]
< 500 nM	< 500 nM	< 500 nM	C=Cc1cc(-c2cc(C#N)c(N3CCN(C(=O)CC(F)(F)F)[C@H](C)C3)nc2C2CC2)ccn1 [Compound 444, (R)-2-cyclopropyl-6-(3-methyl-4-(3,3,3-trifluoropropanoyl)piperazin-1-yl)-2′-vinyl-3,4′-bipyridine-5-carbonitrile]
500 to 1000 nM	1000 to 10000 nM	< 500 nM	COCCC(=O)N1CCN(c2nc(C3CC3)c(-c3cnnc(OS(=O)(=O)C(F)(F)F)c3)cc2C#N)C[C@H]1C1CC1 [Compound 675, (R)-5-(5-cyano-2-cyclopropyl-6-(3-cyclopropyl-4-(3-methoxypropanoyl)piperazin-1-yl)pyridin-3-yl)pyridazin-3-yl trifluoromethanesulfonate]
< 500 nM	< 500 nM	< 500 nM	C=Cc1cc(-c2cc(C#N)c(N3CCN(C(=O)CC4CCCO4)[C@H](C4CC4)C3)nc2C2CC2)ccn1 (stereo partly drawn) [Compound 801, 2-cyclopropyl-6-((3R)-3-cyclopropyl-4-(2-(tetrahydrofuran-2-yl)acetyl)piperazin-1-yl)-2′-vinyl-[3,4′-bipyridine]-5-carbonitrile]
1000 to 10000 nM	1000 to 10000 nM	< 500 nM	COCCC(=O)N1CCN(c2nc(C3CC3)c(-c3cccc4[nH]ccc34)cc2C#N)C[C@H]1C [Compound 287, (R)-6-cyclopropyl-5-(1H-indol-4-yl)-2-(4-(3-methoxypropanoyl)-3-methylpiperazin-1-yl)nicotinonitrile]
< 500 nM	< 500 nM	< 500 nM	N#Cc1cc(-c2cccc3c(O)nccc23)c(C2CC2)nc1N1CCN(C(=O)CC(F)(F)F)[C@H](C2CC2)C1 [Compound 547, (R)-6-cyclopropyl-2-(3-cyclopropyl-4-(3,3,3-trifluoropropanoyl)piperazin-1-yl)-5-(1-hydroxyisoquinolin-5-yl)nicotinonitrile]
< 500 nM	< 500 nM	< 500 nM	C=Cc1cc(-c2cc(C#N)c(N3CCN(C(=O)C[C@@H](C)O)[C@H](C4CC4)C3)nc2C2CC2)ccn1 [Compound 585, 2-cyclopropyl-6-((R)-3-cyclopropyl-4-((R)-3-hydroxybutanoyl)piperazin-1-yl)-2′-vinyl-3,4′-bipyridine-5-carbonitrile]
1000 to 10000 nM	1000 to 10000 nM	< 500 nM	COCCC(=O)N1CCN(c2nc(C3CC3)c(-c3ccccc3OC(F)(F)F)cc2C#N)C[C@H]1C(C)C [Compound 276, (R)-6-cyclopropyl-2-(3-isopropyl-4-(3-methoxypropanoyl)piperazin-1-yl)-5-(2-(trifluoromethoxy)phenyl)nicotinonitrile]
500 to 1000 nM	1000 to 10000 nM	< 500 nM	N#Cc1cc(-c2ccc3ncoc3c2)c(C2CC2)nc1N1CCN(C(=O)C2CC2)[C@H](C2CC2)C1 [Compound 466, (R)-5-(benzo[d]oxazol-6-yl)-2-(4-(cyclopropanecarbonyl)-3-cyclopropylpiperazin-1-yl)-6-cyclopropylnicotinonitrile]
500 to 1000 nM	500 to 1000 nM	< 500 nM	COCCC(=O)N1CCN(c2nc(C3CC3)c(-c3ccc4ncccc4c3)cc2C#N)C[C@H]1C [Compound 353, (R)-6-cyclopropyl-2-[4-(3-methoxy-propionyl)-3-methyl-piperazin-1-yl]-5-quinolin-6-yl-nicotinonitrile]
< 500 nM	< 500 nM	< 500 nM	C=Cc1ccnc(Nc2cc(C#N)c(N3CCN(C(=O)C[C@H]4CCO4)[C@H](C(C)C)C3)nc2C2CC2)c1 [Compound 764, 6-cyclopropyl-2-((R)-3-isopropyl-4-(2-((R)-oxetan-2-yl)acetyl)piperazin-1-yl)-5-((4-vinylpyridin-2-yl)amino)nicotinonitrile]

The next lines start with the molecule.

Compound	IC50 (U87MG cells)	IC50 (HT1080 cells)	IC50 (IDH1 R132H)
COCCC(=O)N1CCN(c2nc(C3CC3)c(OC(c3ccccc3)C(C)C)cc2C#N)C[C@H]1C (stereo partly drawn) [Compound 302, 6-cyclopropyl-2-((R)-4-(3-methoxypropanoyl)-3-methylpiperazin-1-yl)-5-(2-methyl-1-phenylpropoxy)nicotinonitrile]	1000 to 10000 nM	1000 to 10000 nM	< 500 nM
C=Cc1cc(-c2cc(C#N)c(N3CCN(C(=O)CC(C)(C)O)[C@H](C4CC4)C3)nc2C2CC2)ccn1 [Compound 561, (R)-2-cyclopropyl-6-(3-cyclopropyl-4-(3-hydroxy-3-methylbutanoyl)piperazin-1-yl)-2′-vinyl-3,4′-bipyridine-5-carbonitrile]	< 500 nM	< 500 nM	< 500 nM
COCCC(=O)N1CCN(c2nc(C3CC3)c(OCc3cccc(NC(=O)CBr)c3)cc2C#N)C[C@H]1C [Compound 382, (R)-2-bromo-N-(3-((5-cyano-2-cyclopropyl-6-(4-(3-methoxypropanoyl)-3-methylpiperazin-1-yl)pyridin-3-yloxy)methyl)phenyl)acetamide]	500 to 1000 nM	< 500 nM	< 500 nM
C=Cc1cc(Nc2cc(C#N)c(N3CCN(C(=O)CCOC)[C@H](C4CC4)C3)nc2C2CC2)ccn1 [Compound 678, (R)-6-cyclopropyl-2-(3-cyclopropyl-4-(3-methoxypropanoyl)piperazin-1-yl)-5-((2-vinylpyridin-4-yl)amino)nicotinonitrile]	< 500 nM	< 500 nM	< 500 nM
C=Cc1cnnc(-c2cc(C#N)c(N3CCN(C(=O)CCO)[C@H](C4CC4)C3)nc2C2CC2)c1 [Compound 716, (R)-6-cyclopropyl-2-(3-cyclopropyl-4-(3-hydroxypropanoyl)piperazin-1-yl)-5-(5-vinylpyridazin-3-yl)nicotinonitrile]	< 500 nM	< 500 nM	< 500 nM
C=Cc1cc(-c2cc(C#N)c(N3CCN(C(=O)CCOC)[C@H](C(C)C)C3)nc2C2CC2)c2ccncc2n1 [Compound 611, (R)-6-cyclopropyl-2-(3-isopropyl-4-(3-methoxypropanoyl)piperazin-1-yl)-5-(2-vinyl-1,7-naphthyridin-4-yl)nicotinonitrile]	< 500 nM	< 500 nM	< 500 nM
C=Cc1cc(-c2c(C3CC3)nc(N3CCN(C(=O)C[C@H]4CCO4)[C@H](C4CC4)C3)c(C#N)c2C)ccn1 [Compound 760, 2-cyclopropyl-6-((R)-3-cyclopropyl-4-(2-((R)-oxetan-2-yl)acetyl)piperazin-1-yl)-4-methyl-2′-vinyl-3,4′-bipyridine-5-carbonitrile]	< 500 nM	< 500 nM	< 500 nM
N#Cc1cc(Nc2ccnc3ccccc23)c(C2CC2)nc1N1CCN(C(=O)C2CC2)[C@H](C2CC2)C1 [Compound 528, (R)-2-(4-(cyclopropanecarbonyl)-3-cyclopropylpiperazin-1-yl)-6-cyclopropyl-5-(quinolin-4-ylamino)nicotinonitrile]	< 500 nM	500 to 1000 nM	< 500 nM
C=Cc1cc(-c2c(C3CC3)nc(N3CCN(C(=O)CCCO)[C@H](C4CC4)C3)c(C#N)c2C)ccn1 [Compound 770, (R)-2-cyclopropyl-6-(3-cyclopropyl-4-(4-hydroxybutanoyl)piperazin-1-yl)-4-methyl-2′-vinyl-3,4′-bipyridine-5-carbonitrile]	< 500 nM	< 500 nM	< 500 nM
C=Cc1cc(-c2cc(C#N)c(N3CCN(C(=O)CCOC)[C@H](C(C)C)C3)nc2C2CC2)ccn1 [Compound 631, (R)-2-cyclopropyl-6-(3-isopropyl-4-(3-methoxypropanoyl)piperazin-1-yl)-2′-vinyl-3,4′-bipyridine-5-carbonitrile]	< 500 nM	< 500 nM	< 500 nM

— patent publication US9856279B2 (AGIOS PHARMACEUTICALS, INC, priority 2011, dated 2018)
